From patent US9504668B2 (priority 2013, dated 2016)

Tests used:
Assay in all cases: animal or person
Type in all cases: in vivo
Male Sprague-Dawley rats [1] = details: Rattus norvegicus, iv, read-out: Intervention Protection %
Mice = details: Mus musculus, po; for ED50: read-out: MES test ED50
Male Sprague-Dawley rats [2] = details: for ED50: Rattus norvegicus, read-out: Prevention ED50; for ED50 / Prevention Peak Time: ip; for Prevention Peak Time / Prevention Protection %: rat, in vivo
[3] = read-out: MES test Protection %

SMILES	responders at 46 mg/kg (Male Sprague-Dawley rats [1]) [%]	responders at 90 mg/kg (Mice; [3]) [%]	further results
CO[C@@H](c1cccc(Cl)c1Cl)[C@H](C)OC(N)=O [Example 191, 1-(2,3-dichlorophenyl)-(S)-1-methoxypropyl-(S)-2-carbamate]	100	100	–
C[C@@H](OC(N)=O)[C@H](OC(N)=O)c1c(Cl)cccc1Cl [Example 290, 1-(2,6-dichlorophenyl)-(R)-1-carbamoyloxypropyl-(R)-2-carbamate]	–	–	responders at 30 mg/kg (Mice; [3]): 33.3%
COCO[C@@H](c1ccccc1Cl)[C@H](C)OC(N)=O [Example 1, 1-(2-chlorophenyl)-(S)-1-methoxymethoxypropyl-(S)-2-carbamate]	50	–	ED50 (Mice): 21.6 mg/kg; ED50 (Male Sprague-Dawley rats [2]): 26.6 mg/kg; Prevention Peak Time (Male Sprague-Dawley rats [2]): 0.5 h
COCO[C@@H](C)[C@@H](OC(N)=O)c1ccccc1F [Example 284, 1-(2-fluorophenyl)-(S)-2-methoxymethoxypropyl-1-carbamate]	–	33.3	–
CO[C@@H](c1ccccc1F)[C@H](C)OC(N)=O [Example 135, 1-(2-fluorophenyl)-(S)-1-methoxypropyl-(S)-2-carbamate]	100	–	ED50 (Mice): 12.5 mg/kg; Prevention Protection % (Male Sprague-Dawley rats [2]): ^a20 (16.7%)
CC[C@H](OC(N)=O)[C@@H](OC)c1ccccc1I [Example 151, 1-(2-iodophenyl)-(S)-1-methoxybutyl-(S)-2-carbamate]	100	–	ED50 (Mice): 37 mg/kg; Prevention Protection % (Male Sprague-Dawley rats [2]): ^a60 (100%)
CC[C@@H](OC(N)=O)[C@H](OC)c1ccc(Cl)cc1Cl [Example 232, 1-(2,4-dichlorophenyl)-(R)-1-methoxybutyl-(R)-2-carbamate]	–	33.3	–
C[C@@H](OC(N)=O)[C@H](OC(N)=O)c1c(F)cccc1F [Example 292, 1-(2,6-difluorophenyl)-(R)-1-carbamoyloxypropyl-(R)-2-carbamate]	–	–	responders at 56 mg/kg (Mice; [3]): 33.3%
C[C@H](OC(N)=O)[C@@H](OC(N)=O)c1c(F)cccc1Cl [Example 286, 1-(2-chloro-6-fluorophenyl)-(S)-1-carbamoyloxypropyl-(S)-2-carbamate]	–	33.3	–
CC(OC(N)=O)C(OC(N)=O)c1ccccc1Cl (centres unmarked) [Example 251, 1-(2-chlorophenyl)-2-carbamoyloxypropyl-1-carbamate]	–	–	responders at 100 mg/kg (Mice; [3]): 33.3%
CO[C@@H](c1ccc(Cl)cc1Cl)[C@H](C)OC(N)=O [Example 183, 1-(2,4-dichlorophenyl)-(S)-1-methoxypropyl-(S)-2-carbamate]	100	100	–
CCCC[C@H](OC(N)=O)[C@@H](OCOC)c1ccccc1I [Example 44, 1-(2-iodophenyl)-(S)-1-methoxymethoxyhexyl-(S)-2-carbamate]	–	100	–
C[C@@H](OC(N)=O)[C@H](OC(N)=O)c1ccccc1F [Example 289, 1-(2-fluorophenyl)-(R)-1-carbamoyloxypropyl-(R)-2-carbamate]	–	–	ED50 (Mice): 56.2 mg/kg; Prevention Protection % (Male Sprague-Dawley rats [2]): ^a80 (16.7%)
CC[C@H](OC(N)=O)[C@@H](OCOC)c1ccccc1I [Example 28, 1-(2-iodophenyl)-(S)-1-methoxymethoxybutyl-(S)-2-carbamate]	33.3	33.3	Prevention Protection % (Male Sprague-Dawley rats [2]): ^a50 (100%)
CO[C@@H](C)[C@@H](OC(N)=O)c1ccccc1I [Example 283, 1-(2-iodophenyl)-(S)-2-methoxypropyl-1-carbamate]	–	100	–
CO[C@@H](c1ccccc1Cl)[C@@H](C)OC(N)=O [Example 195, 1-(2-chlorophenyl)-(S)-1-methoxypropyl-(R)-2-carbamate]	50	100	–
CO[C@@H](c1ccc(F)cc1)[C@H](C)OC(N)=O [Example 179, 1-(4-fluorophenyl)-(S)-1-methoxypropyl-(S)-2-carbamate]	–	33.3	–
COCO[C@@H](c1ccccc1Cl)[C@@H](OC(N)=O)C(C)C [Example 10, 1-(2-chlorophenyl)-(S)-1-methoxymethoxy-3-methyl-butyl-(S)-2-carbamate]	66.7	100	–
COCO[C@H](c1cc(Cl)ccc1Cl)[C@@H](C)OC(N)=O [Example 273, 1-(2,5-dichlorophenyl)-(R)-1-methoxymethoxypropyl-(R)-2-carbamate]	–	–	responders at 30 mg/kg (Mice; [3]): 33.3%
CO[C@@H](C)[C@@H](OC(N)=O)c1ccccc1Cl [Example 275, 1-(2-chlorophenyl)-(S)-2-methoxypropyl-(S)-1-carbamate]	–	100	–
COCO[C@@H](c1cccc(Cl)c1Cl)[C@H](C)OC(N)=O [Example 68, 1-(2,3-dichlorophenyl)-(S)-1-methoxymethoxypropyl-(S)-2-carbamate]	40	100	–
COCO[C@@H](c1ccccc1Cl)[C@@H](C)OC(N)=O [Example 72, 1-(2-chlorophenyl)-(S)-1-methoxymethoxypropyl-(R)-2-carbamate]	50	100	–

SMILES	responders at 46 mg/kg (Male Sprague-Dawley rats [1]) [%]	responders at 90 mg/kg (Mice; [3]) [%]	further results
CC[C@H](OC(N)=O)[C@@H](OCOC)c1ccccc1Cl [Example 9, 1-(2-chlorophenyl)-(S)-1-methoxymethoxybutyl-(S)-2-carbamate]	33.3	100	–
COCO[C@@H](c1cccc(I)c1)[C@H](C)OC(N)=O [Example 52, 1-(3-iodophenyl)-(S)-1-methoxymethoxypropyl-(S)-2-carbamate]	100	–	ED50 (Mice): 24.7 mg/kg; Prevention Protection % (Male Sprague-Dawley rats [2]): ^a20 (16.7%)
COCO[C@H](COC(N)=O)c1ccccc1I [Example 278, 1-(2-iodophenyl)-(S)-1-methoxymethoxyethyl-2-carbamate]	–	–	responders at 30 mg/kg (Mice; [3]): 33.3%
CCCC[C@H](OC(N)=O)[C@@H](OC)c1ccccc1I [Example 167, 1-(2-iodophenyl)-(S)-1-methoxyhexyl-(S)-2-carbamate]	–	33.3	–
COCO[C@@H](c1ccccc1I)[C@@H](OC(N)=O)C(C)C [Example 36, 1-(2-iodophenyl)-(S)-1-methoxymethoxy-3-methyl-butyl-(S)-2-carbamate]	–	100	–
C[C@H](OC(N)=O)[C@@H](OC(N)=O)c1ccccc1I [Example 259, 1-(2-iodophenyl)-(S)-1-carbamoyloxypropyl-(S)-2-carbamate]	–	66.6	–
COCO[C@H](c1ccccc1Cl)[C@H](C)OC(N)=O [Example 71, 1-(2-chlorophenyl)-(R)-1-methoxymethoxypropyl-(S)-2-carbamate]	100	100	–
COCO[C@@H](C)[C@@H](OC(N)=O)c1ccccc1I [Example 282, 1-(2-iodophenyl)-(S)-2-methoxymethoxypropyl-1-carbamate]	–	33.3	–
COCO[C@H](c1c(Cl)cccc1Cl)[C@@H](C)OC(N)=O [Example 107, 1-(2,6-dichlorophenyl)-(R)-1-methoxymethoxypropyl-(R)-2-carbamate]	–	–	responders at 30 mg/kg (Mice; [3]): 33.3%
C[C@@H](OC(N)=O)[C@@H](OC(N)=O)c1ccccc1Cl [Example 294, 1-(2-chlorophenyl)-(S)-1-carbamoyloxypropyl-(R)-2-carbamate]	–	66.6	–
CO[C@H](c1ccccc1Cl)[C@H](C)OC(N)=O [Example 194, 1-(2-chlorophenyl)-(R)-1-methoxypropyl-(S)-2-carbamate]	83.3	100	–
COCO[C@H](c1ccccc1Cl)[C@@H](C)OC(N)=O [Example 69, 1-(2-chlorophenyl)-(R)-1-methoxymethoxypropyl-(R)-2-carbamate]	–	66.6	–
CO[C@@H](c1cccc(I)c1)[C@@H](OC(N)=O)C(C)C [Example 177, 1-(3-iodophenyl)-(S)-1-methoxy-3-methyl-butyl-(S)-2-carbamate]	–	66.6	–
CO[C@@H](c1ccccc1I)[C@H](C)OC(N)=O [Example 143, 1-(2-iodophenyl)-(S)-1-methoxypropyl-(S)-2-carbamate]	–	–	responders at 23 mg/kg (Male Sprague-Dawley rats [1]): 66.7%; ED50 (Mice): 15.7 mg/kg; ED50 (Male Sprague-Dawley rats [2]): 19.6 mg/kg; Prevention Peak Time (Male Sprague-Dawley rats [2]): 1 h
CO[C@@H](c1ccccc1Cl)[C@H](C)OC(N)=O [Example 124, 1-(2-chlorophenyl)-(S)-1-methoxypropyl-(S)-2-carbamate]	–	–	ED50 (Mice): 15.6 mg/kg
C[C@H](OC(N)=O)[C@@H](OC(N)=O)c1c(Cl)cccc1Cl [Example 267, 1-(2,6-dichlorophenyl)-(S)-1-carbamoyloxypropyl-(S)-2-carbamate]	–	–	responders at 50 mg/kg (Mice; [3]): 16.6%
CCCC[C@@H](OC(N)=O)[C@H](OC)c1ccc(F)cc1 [Example 213, 1-(4-fluorophenyl)-(R)-1-methoxyhexyl-(R)-2-carbamate]	–	33.3	–
COCO[C@@H](C)[C@@H](OC(N)=O)c1ccccc1Cl [Example 274, 1-(2-chlorophenyl)-(S)-2-methoxymethoxypropyl-(S)-1-carbamate]	33.3	100	–
CCCC[C@H](OC(N)=O)[C@@H](OCOC)c1ccccc1Cl [Example 11, 1-(2-chlorophenyl)-(S)-1-methoxymethoxyhexyl-(S)-2-carbamate]	66.7	100	–
C[C@@H](OC(N)=O)[C@H](OC(N)=O)c1ccccc1Cl [Example 250, 1-(2-chlorophenyl)-(R)-2-carbamoyloxypropyl-(R)-1-carbamate]	–	–	ED50 (Mice): 46.3 mg/kg; Prevention Protection % (Male Sprague-Dawley rats [2]): ^a60 (16.7%)
C[C@H](OC(N)=O)[C@H](OC(N)=O)c1ccccc1Cl [Example 295, 1-(2-chlorophenyl)-(R)-1-carbamoyloxypropyl-(S)-2-carbamate]	–	100	–
COCO[C@@H](c1ccccc1I)[C@H](C)OC(N)=O [Example 20, 1-(2-iodophenyl)-(S)-1-methoxymethoxypropyl-(S)-2-carbamate]	16.7	–	ED50 (Mice): 29.5 mg/kg; ED50 (Male Sprague-Dawley rats [2]): 25.9 mg/kg; Prevention Peak Time (Male Sprague-Dawley rats [2]): 1 h
